# Assay results: ChEMBL document CHEMBL1132038, “L-770,644: a potent and selective human beta3 adrenergic receptor agonist with improved oral bioavailability” (Bioorg Med Chem Lett, 1999)
# Assays:
# [1] = target: T1, Beta-3 adrenergic receptor (Homo sapiens, UniProt P13945); assay: Agonistic activity against the cloned human Beta-3 adrenergic receptor was measured by its by its ability to stimulate adenylyl cyclase; type: functional
# Target sequence in this assay (P13945 whole entry): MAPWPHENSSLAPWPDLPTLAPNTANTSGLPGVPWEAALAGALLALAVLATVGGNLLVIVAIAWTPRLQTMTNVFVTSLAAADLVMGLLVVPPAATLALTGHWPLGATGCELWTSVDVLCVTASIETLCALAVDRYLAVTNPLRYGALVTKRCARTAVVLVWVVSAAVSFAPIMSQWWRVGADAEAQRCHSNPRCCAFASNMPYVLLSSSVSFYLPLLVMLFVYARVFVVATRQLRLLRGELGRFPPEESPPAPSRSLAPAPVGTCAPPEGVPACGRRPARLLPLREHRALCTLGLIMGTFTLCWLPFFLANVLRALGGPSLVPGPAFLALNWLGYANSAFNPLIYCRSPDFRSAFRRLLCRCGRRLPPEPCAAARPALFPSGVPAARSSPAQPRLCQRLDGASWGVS
# [2] = target: T2, Beta-1 adrenergic receptor (Homo sapiens, UniProt P08588); assay: Agonistic activity against the cloned human Beta-1 adrenergic receptor was measured by its by its ability to stimulate adenylyl cyclase; type: functional
# Target sequence in this assay (P08588 whole entry): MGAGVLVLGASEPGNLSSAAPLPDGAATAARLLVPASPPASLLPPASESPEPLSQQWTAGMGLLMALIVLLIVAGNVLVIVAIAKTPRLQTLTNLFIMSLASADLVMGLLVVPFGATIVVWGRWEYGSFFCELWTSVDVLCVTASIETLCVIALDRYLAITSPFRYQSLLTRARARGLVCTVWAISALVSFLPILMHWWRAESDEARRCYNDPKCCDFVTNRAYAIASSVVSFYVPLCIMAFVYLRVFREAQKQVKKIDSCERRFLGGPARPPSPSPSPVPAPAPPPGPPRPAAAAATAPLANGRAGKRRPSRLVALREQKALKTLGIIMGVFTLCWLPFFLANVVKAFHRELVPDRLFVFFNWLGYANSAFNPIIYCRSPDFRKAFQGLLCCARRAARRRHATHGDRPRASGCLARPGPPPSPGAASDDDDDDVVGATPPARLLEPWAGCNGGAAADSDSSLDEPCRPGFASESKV
# [3] = target: T2, Beta-1 adrenergic receptor; assay: Inhibitory activity against cloned human Beta-1 adrenergic receptor in the presence of [125I]iodocyanopindolol in CHO cells by receptor binding assay; type: cell-based
# Target sequence in this assay (P08588 whole entry): as above
# [4] = target: T1, Beta-3 adrenergic receptor; assay: Adenylyl cyclase activation expressed as percent of maximal stimulation with isoproterenol at the cloned human Beta-3 adrenergic receptor at 10 uM; type: functional
# Target sequence in this assay (P13945 whole entry, looked up): as the sequence (P13945 whole entry) above
# [5] = target: T3, Beta-2 adrenergic receptor (Homo sapiens, UniProt P07550); assay: Inhibitory activity against cloned human Beta-2 adrenergic receptor in the presence of [125I]iodocyanopindolol in CHO cells by receptor binding assay; type: cell-based
# Target sequence in this assay (P07550 whole entry): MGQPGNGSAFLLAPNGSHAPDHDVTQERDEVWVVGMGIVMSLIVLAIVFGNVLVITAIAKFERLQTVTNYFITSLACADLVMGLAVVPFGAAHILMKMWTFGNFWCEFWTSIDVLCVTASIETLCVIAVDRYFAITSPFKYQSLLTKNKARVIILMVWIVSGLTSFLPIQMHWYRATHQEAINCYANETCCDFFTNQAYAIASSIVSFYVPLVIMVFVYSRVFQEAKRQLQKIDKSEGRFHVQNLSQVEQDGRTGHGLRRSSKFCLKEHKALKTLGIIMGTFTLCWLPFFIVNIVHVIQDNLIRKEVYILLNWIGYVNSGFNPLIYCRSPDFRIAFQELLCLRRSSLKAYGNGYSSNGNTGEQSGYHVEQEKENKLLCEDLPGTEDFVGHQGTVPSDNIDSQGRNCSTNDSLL
# [6] = Oral bioavailability in rat; type: ADME, organism-based; details: in vivo
# [7] = Oral bioavailability in dog; type: ADME, organism-based, Canis lupus familiaris; details: in vivo
# [8] = target: T3, Beta-2 adrenergic receptor; assay: Adenylyl cyclase activation expressed as percent of maximal stimulation with isoproterenol at the cloned human Beta-2 adrenergic receptor at 10 uM; type: functional
# Target sequence in this assay (P07550 whole entry, looked up): as the sequence (P07550 whole entry) above
# [9] = target: T1, Beta-3 adrenergic receptor; assay: Inhibitory activity against cloned human Beta-3 adrenergic receptor in the presence of [125I]iodocyanopindolol expressed in CHO cells by receptor binding assay; type: cell-based
# Target sequence in this assay (P13945 whole entry): as the sequence (P13945 whole entry) above
# [10] = target: T3, Beta-2 adrenergic receptor; assay: Agonistic activity against the cloned human Beta-2 adrenergic receptor was measured by its by its ability to stimulate adenylyl cyclase; type: functional
# Target sequence in this assay (P07550 whole entry): as the sequence (P07550 whole entry) above
# [11] = target: T2, Beta-1 adrenergic receptor; assay: Adenylyl cyclase activation expressed as percent of maximal stimulation with isoproterenol at the cloned human Beta-1 adrenergic receptor at 10 uM; type: functional
# Target sequence in this assay (P08588 whole entry, looked up): as the sequence (P08588 whole entry) above
# [12] = target: T2, Beta-1 adrenergic receptor; assay: Inhibitory activity against cloned human Beta-1 adrenergic receptor in the presence of [125I]iodocyanopindolol expressed in CHO cells by receptor binding assay; type: cell-based
# Target sequence in this assay (P08588 whole entry): as above
# Monkey = assay: Compound was tested for agonistic activity for glycerolemia in rhesus monkey; type: functional; details: Cercopithecidae, in Macaca mulatta
# [13] = Compound was evaluated for the half-life (t 1/2) in hours; type: ADME, organism-based, Canis lupus familiaris; details: dog, in vivo
# [14] = Oral bioavailability in dog (p.o. dosing of 0.05 M citric acid/0.05 M hydrochloric acid solution); type: ADME, organism-based, Canis lupus familiaris; details: in vivo
# [15] = target: T3, Beta-2 adrenergic receptor; assay: Adenylyl cyclase activation expressed as percent of maximal stimulation with isoproterenol against the cloned human Beta-2 adrenergic receptor at 10 uM; type: functional
# Target sequence in this assay (P07550 whole entry, looked up): as the sequence (P07550 whole entry) above
# [16] = target: T2, Beta-1 adrenergic receptor; assay: Adenylyl cyclase activation expressed as percent of maximal stimulation with isoproterenol against the cloned human Beta-1 adrenergic receptor 10 uM; type: functional
# Target sequence in this assay (P08588 whole entry, looked up): as the sequence (P08588 whole entry) above
Structure (SMILES),EC50 [1] [nM],Activation [4] [%],IC50 [5] [nM],half-life [13] [h],bioavailability [14] [%],EC50 [2] [nM],IC50 [3] [nM],other results
CCCCCCCCn1nnn(-c2ccc(S(=O)(=O)Nc3ccc(CCNC[C@H](O)c4cccnc4)cc3)cc2)c1=O,6.3,57,570,–,–,370,1400,–
O=c1n(CCCC2CCCC2)nnn1-c1ccc(S(=O)(=O)Nc2ccc(CCNC[C@H](O)c3cccnc3)cc2)cc1,13,75,1600,–,–,1900,–,bioavailability [6]: 27%; bioavailability [7]: 27%; Activation [8]: 26%; IC50 [9]: 92 nM; EC50 [10]: 1800 nM; Activation [11]: 33%; IC50 [12]: 3400 nM; ED50 (Monkey): 0.21 mg/kg
CCCCCCn1nnn(-c2ccc(S(=O)(=O)Nc3ccc(CCNC[C@H](O)c4cccnc4)cc3)cc2)c1=O,30,67,3300,–,–,–,5000,Activation [15]: 9%; Activation [16]: 19%

# Now from value to compound, other results behind:
EC50 [1] [nM],Activation [4] [%],IC50 [5] [nM],half-life [13] [h],bioavailability [14] [%],Structure (SMILES),EC50 [2] [nM],IC50 [3] [nM],other results
–,–,–,3.5,17,O=C1N(CCCC2CCCC2)CCN1c1ccc(S(=O)(=O)Nc2ccc(CCNC[C@H](O)c3cccnc3)cc2)cc1 [L-766892],–,–,–
–,–,–,3.6,12,CCCCCCn1ccn(-c2ccc(S(=O)(=O)Nc3ccc(CCNC[C@H](O)c4cccnc4)cc3)cc2)c1=O [L-764646],–,–,–
